Source: the supplement of paper PMC8882468

Assays:
Assay in all cases: CTG-3D luminescence at 96 h relative to day-0 seeding control (ratio to day 0); higher = more growth / less cytotoxicity; PDxO 3D drug screen, 96 h, CTG-3D normalised to day-0 seeding control.
HCI-024 = test system: HCI-024 (organoid from a breast cancer xenograft)
HCI-003.E2 = test system: HCI-003.E2 (organoid from an ER-positive breast cancer xenograft)
HCI-019 = test system: HCI-019 (organoid from a triple-negative breast cancer xenograft)
HCI-027 = test system: HCI-027 (organoid from a triple-negative breast cancer xenograft)
HCI-023 = test system: HCI-023 (organoid from a triple-negative breast cancer xenograft)
HCI-012 = test system: HCI-012 (organoid from a breast cancer xenograft)
MDA-MB-231 = test system: MDA-MB-231

CCc1c2c(nc3ccc(O)cc13)-c1cc3c(c(=O)n1C2)COC(=O)[C@]3(O)CC [SN-38]
CTG-3D luminescence at 96 h
Settings | 12.5 pM | 0.00025 µM | 0.005 µM | 0.1 µM | 1 µM | 10 µM | 100 µM | 625 fM
HCI-012, days in culture: 143 | 1.85 | 2.16 | 0.415 | 0.0623 | 0.0329 | 0.0255 | 0.0169 | 1.9
HCI-012, days in culture: 162 | 2.38 | 1.99 | 0.295 | 0.0642 | 0.0329 | 0.0269 | 0.0164 | 2.73
HCI-012, days in culture: 201 | 2.31 | 1.99 | 0.824 | 0.0348 | 0.0248 | 0.0127 | 0.014 | 1.61
HCI-019, days in culture: 110 | 1.82 | 1.78 | 0.471 | 0.295 | 0.238 | 0.127 | 0.0625 | 2.53
HCI-019, days in culture: 131 | 3.04 | 2.79 | 0.948 | 0.312 | 0.308 | 0.107 | 0.169 | 3.56
HCI-019, days in culture: 152 | 3.21 | 3.38 | 1.51 | 0.48 | 0.521 | 0.106 | 0.0856 | 2.26
HCI-023, days in culture: 111 | 1.39 | 1.19 | 0.797 | 0.194 | 0.0332 | 0.0191 | 0.0103 | 1.53
HCI-023, days in culture: 128 | 2.09 | 1.68 | 0.754 | 0.391 | 0.0587 | 0.0307 | 0.0252 | 1.9
HCI-024, days in culture: 105 | 1.67 | 1.42 | 1.1 | 0.734 | 0.264 | 0.153 | 0.114 | 1.9
HCI-024, days in culture: 122 | 2.16 | 2.39 | 1.58 | 0.768 | 0.272 | 0.192 | 0.13 | 2.86
HCI-024, days in culture: 163 | 1.84 | 1.76 | 1.18 | 0.824 | 0.262 | 0.185 | 0.173 | 2.01
HCI-027, days in culture: 176 | 1.94 | 1.79 | 1.19 | 0.371 | 0.104 | 0.0345 | 0.0407 | 1.74
HCI-027, days in culture: 194 | 1.81 | 1.39 | 0.614 | 0.307 | 0.0805 | 0.0428 | 0.0357 | 1.66
HCI-027, days in culture: 201 | 2.6 | 2.5 | 0.717 | 0.272 | 0.0912 | 0.0373 | 0.029 | 2.46

CTG-3D luminescence at 96 h
Settings | 12.5 pM | 0.00025 µM | 0.005 µM | 0.1 µM | 1 µM | 10 µM | 100 µM | 625 fM
HCI-003.E2 | 2.07 | 2.06 | 1.68 | 1.64 | 1.24 | 0.339 | 0.213 | 1.94
MDA-MB-231 | 4.45 | 4.3 | 3.73 | 2.38 | 1.55 | 0.665 | 0.568 | 4.4

O=C(O)C1(C(=O)O)CCC1.[NH2-].[NH2-].[Pt+2] [carboplatin]
CTG-3D luminescence at 96 h
Settings | 12.5 pM | 0.00025 µM | 0.005 µM | 0.1 µM | 1 µM | 10 µM | 100 µM | 625 fM
HCI-012, days in culture: 143 | 2.05 | 1.91 | 1.99 | 2.46 | 2.43 | 1.87 | 0.161 | 1.81
HCI-012, days in culture: 162 | 2.3 | 1.93 | 2.03 | 2.94 | 2.7 | 2.14 | 0.261 | 2.61
HCI-012, days in culture: 201 | 2.62 | 1.81 | 1.46 | 1.53 | 2.08 | 1.48 | 0.595 | 1.38
HCI-019, days in culture: 110 | 1.39 | 1.76 | 1.53 | 2.63 | 1.29 | 1.16 | 0.26 | 1.97
HCI-019, days in culture: 131 | 2.21 | 3.56 | 2.77 | 2.39 | 2.12 | 1.23 | 0.234 | 3.26
HCI-019, days in culture: 152 | 2.94 | 2.48 | 2.23 | 1.4 | 1.99 | 1.4 | 0.291 | 1.64
HCI-023, days in culture: 111 | 1.4 | 1.31 | 1.12 | 1.33 | 0.977 | 1.03 | 0.106 | 1.16
HCI-023, days in culture: 128 | 1.28 | 1.47 | 1.23 | 1.6 | 1.16 | 1.35 | 0.0724 | 1.57
HCI-024, days in culture: 105 | 1.38 | 1.54 | 1.37 | 1.52 | 1.36 | 1.64 | 0.14 | 1.71
HCI-024, days in culture: 122 | 1.94 | 1.95 | 1.97 | 1.65 | 1.8 | 2.27 | 0.189 | 2.78
HCI-024, days in culture: 163 | 2.01 | 2.27 | 2.06 | 2.67 | 2.1 | 2.03 | 0.608 | 2.43
HCI-027, days in culture: 176 | 1.57 | 1.38 | 2.11 | 1.68 | 2.42 | 1.35 | 0.0917 | 1.72
HCI-027, days in culture: 194 | 1.43 | 1.55 | 1.4 | 1.9 | 2.15 | 1.91 | 0.181 | 1.44
HCI-027, days in culture: 201 | 2.1 | 1.98 | 2.09 | 2.08 | 2.19 | 1.53 | 0.145 | 1.71

CTG-3D luminescence at 96 h
Settings | 12.5 pM | 0.00025 µM | 0.005 µM | 0.1 µM | 1 µM | 10 µM | 100 µM | 625 fM
HCI-003.E2 | 2.12 | 2.49 | 2.22 | 2.23 | 2.32 | 2.35 | 1.65 | 2.11
MDA-MB-231 | 4.49 | 4.27 | 4.51 | 4.46 | 4.4 | 4.16 | 3.05 | 4.47
